Results taken from article PMC8534114, “Molecular Basis of a Dominant SARS-CoV-2 Spike-Derived Epitope Presented by HLA-A*02:01 Recognised by a Public TCR” (Cells, 2021).

Key:
CD8+ T cells [1] = conditions: cited from earlier work
CD8+ T cells [2] = format: cell-based, human

YLQPRTFLL
CD8+ T cell response (in words) (CD8+ T cells [1]): strong CD8+ T cell response
CD8+ T cell stimulation (in words) (CD8+ T cells [1]): strongly stimulate CD8+ T cells
CD8+ T cell response, overall (CD8+ T cells [2]): all able to generate a polyfunctional CD8+ T cell response
